According to ChEMBL document CHEMBL1201862, “PubChem BioAssay data set” (2004):
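Step 1: Grow cells in 96-well plates. Step 2: Expose to compound for 48 hours at 5 concentrations. Step 3: Interpolate endpoints linearly; if unreached, use highest concentration. GI50 is the concentration that inhibits growth by half.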 Active and inactive are the calls of the source. No stated cut-off is given here; in the data, active = GI50 up to about 1.1 µM and inactive = higher.

Legend:
Assay in all cases: growth of human tumour cells (NCI), 48 h
[1] = test system: NCI/ADR-RES
[2] = test system: TK-10
[3] = test system: M14
[4] = test system: HCT-116
[5] = test system: OVCAR-3
[6] = test system: 786-0
[7] = test system: SR
[8] = test system: NCI-H226
[9] = test system: UACC-257
[10] = test system: SN12C
[11] = test system: KM12
[12] = test system: HT-29
[13] = test system: HOP-62
[14] = test system: MOLT-4
[15] = test system: NCI-H460
[16] = test system: NCI-H23
[17] = test system: UO-31
[18] = test system: SNB-75

Measured: GI50

CC(=O)c1ccc2c(c1)oc(=O)n2CCN1CCCCC1
inactive: [1] > 100 µM | [2] > 100 µM | [3] > 100 µM | [4] > 100 µM | [5] > 100 µM | [6] > 100 µM | [7] > 100 µM | [8] > 100 µM | [9] > 100 µM | [10] > 100 µM | [11] > 100 µM | [12] > 100 µM | [13] > 100 µM | [14] > 100 µM | [15] > 100 µM | [16] > 100 µM

O=C(O)c1ccc(/C=N/N=C2c3ccccc3-c3ccccc32)cc1
inactive: [1] > 100 µM | [2] 66.1 µM | [3] 67.1 µM | [4] > 100 µM | [5] 19.6 µM | [17] 42 µM | [6] > 100 µM | [7] 30.4 µM | [8] 22.4 µM | [9] 67.5 µM | [10] 31.5 µM | [11] 35.2 µM | [12] 54.3 µM | [13] 54.7 µM | [14] 38.6 µM | [15] 41.2 µM | [16] 53.8 µM

COc1ccc(/C=C/c2ccnc3ccccc23)c(OC)c1
inactive: [1] 3.86 µM | [2] > 10 µM | [3] > 10 µM | [4] 3.56 µM | [5] > 10 µM | [17] > 10 µM | [6] 9.25 µM | [8] 4.51 µM | [9] > 10 µM | [18] 4.23 µM | [10] > 10 µM | [11] 6 µM | [13] > 10 µM | [14] 4.54 µM | [15] 6.05 µM

CCOC(=O)NC(Nc1ccc(C)cc1)(C(F)(F)F)C(F)(F)F
inactive: [1] > 100 µM | [2] > 100 µM | [3] > 100 µM | [4] > 100 µM | [5] > 100 µM | [17] > 100 µM | [6] > 100 µM | [8] > 100 µM | [18] > 100 µM | [10] > 100 µM | [11] > 100 µM | [12] > 100 µM | [13] > 100 µM | [14] > 100 µM | [15] > 100 µM | [16] > 100 µM

COc1ccc(C2C3=CONC3CC3CCCCC32)cc1 (stereo unspecified)
inactive: [2] > 100 µM | [3] 54.5 µM | [4] 29.8 µM | [5] 39.8 µM | [17] 38 µM | [6] 46.7 µM | [7] 41.9 µM | [8] > 100 µM | [9] 80.2 µM | [18] > 100 µM | [12] > 100 µM | [13] > 100 µM | [14] 18.9 µM | [15] 33.8 µM | [16] 35.2 µM

Cc1c(C#N)c(N)[nH]c(=S)c1C#N
inactive: [2] > 100 µM | [4] > 100 µM | [5] > 100 µM | [17] > 100 µM | [6] > 100 µM | [7] > 100 µM | [8] > 100 µM | [9] > 100 µM | [18] > 100 µM | [10] > 100 µM | [11] > 100 µM | [12] > 100 µM | [13] > 100 µM | [14] > 100 µM | [15] > 100 µM | [16] > 100 µM

O=S(=O)(O)c1ccc(/N=N/c2ccc(/N=N/c3c(O)ccc4ccc(S(=O)(=O)O)cc34)cc2)cc1
inactive: [1] > 100 µM | [2] > 100 µM | [3] > 100 µM | [4] > 100 µM | [5] > 100 µM | [17] > 100 µM | [6] > 100 µM | [7] > 100 µM | [8] > 100 µM | [9] > 100 µM | [10] > 100 µM | [11] > 100 µM | [12] > 100 µM | [13] > 100 µM | [14] > 100 µM | [15] > 100 µM | [16] > 100 µM

N#Cc1nc(-c2ccccn2)oc1N
inactive: [2] > 100 µM | [4] > 100 µM | [5] > 100 µM | [17] > 100 µM | [6] > 100 µM | [7] > 100 µM | [8] > 100 µM | [9] > 100 µM | [10] > 100 µM | [11] > 100 µM | [12] > 100 µM | [13] > 100 µM | [14] > 100 µM | [15] > 100 µM | [16] > 100 µM

CCOC(=O)[C@]12C(=C(c3ccccc3)O[C@H]3C=CCC[C@H]31)C(=O)C(=O)N2c1ccccc1
inactive: [1] 17.1 µM | [2] > 100 µM | [3] > 100 µM | [4] > 100 µM | [5] > 100 µM | [17] > 100 µM | [6] > 100 µM | [7] 17.7 µM | [10] > 100 µM | [11] 37.7 µM | [12] 60 µM | [13] > 100 µM | [14] 21.4 µM | [15] > 100 µM | [16] > 100 µM

Nc1ccc2c(c1)S(=O)(=O)c1cc(N)ccc1-2
inactive: [1] > 100 µM | [2] > 100 µM | [3] > 100 µM | [4] > 100 µM | [5] > 100 µM | [17] > 100 µM | [6] > 100 µM | [8] > 100 µM | [9] > 100 µM | [10] > 100 µM | [11] > 100 µM | [12] > 100 µM | [13] > 100 µM | [14] > 100 µM | [15] > 100 µM | [16] > 100 µM

O=C1C[C@@H](c2ccc(O)cc2)[C@@]2(O1)C(=O)O[C@H]([C@@H](O)CO)[C@@H]2O
inactive: [1] > 100 µM | [2] > 100 µM | [3] > 100 µM | [4] > 100 µM | [5] > 100 µM | [17] > 100 µM | [6] > 100 µM | [8] > 100 µM | [9] > 100 µM | [18] > 100 µM | [10] > 100 µM | [11] > 100 µM | [12] > 100 µM | [14] > 100 µM | [15] > 100 µM | [16] > 100 µM

CNC(=O)CCCNC(=O)CCCC(=O)N(C)C
inactive: [1] > 100 µM | [2] > 100 µM | [3] > 100 µM | [4] > 100 µM | [5] > 100 µM | [17] > 100 µM | [6] > 100 µM | [8] > 100 µM | [9] > 100 µM | [18] > 100 µM | [10] > 100 µM | [11] > 100 µM | [12] > 100 µM | [13] > 100 µM | [14] > 100 µM | [15] > 100 µM | [16] > 100 µM
